Key:
Human IgM [1] = test: Glycan array analysis (primary test), glycan score of Human IgM; type: binding
Description: (§1) This testing platform utilized Agnitio BioIC system which performed an automatically ELISA reaction within a microfluidic cartridge. Each cartridge contained an array of microfluidic pumps and valves, a channel network, reagent storage reservoirs, a glycan array reaction zone, and a waste storage reservoir. To perform the test, all reagent and test sample were pumped sequentially, from their respected reservoirs in to a reaction zone containing the glycan microarray in order to carry out a multiplexed ELISA reaction with chemical luminescence. The result data was captured simultaneously and data analysis was performed by the LabIT software provided by Agnitio Science and Technology Inc. The specification of equipment list of Agnitio BioIC system is listed in Table 2.
The Microfluidic cartridge was manufactured at Agnitio Science and Technology Inc. The microfluidic cartridge was composed by three layers shown in FIG. 9. The upper layer contained serum and reagents reservoirs, microfluidic pumps, and ELISA channel network. The rubber middle layer contained a coated nitrocellulose membrane. The glycan antigens (Globo H-ceramide and Globo H-lipid 1) were immobilized onto the nitrocellulose membrane via hydrophobic interactions. The bottom layer contained a tank as for the waste reservoir. There were one hundred and twenty spots for original array layout design. In order to ensure the spot-to-spot coefficient of variation (CV) was lower than 15%, we only used central sixty-four spots for following clinical sample test.
Reagent preparation: Sixty-six microliter Normal Human Serum (NETS) or pancreatic cancer patient's serum was added in 594 μL Sample Diluent Buffer (BioCheck Inc., Cat#MB 10175) to form ten-fold dilution. The Secondary Antibody Solution was performed by first adding 2 μL Horseradish peroxidase (HRP)-conjugated goat anti-human IgG (KPL Inc., Cat#474-1002)/IgM (KPL Inc., Cat#474-1003) in 98 μL Conjugate Buffer (SuperBlock (TBS) Blocking Buffer plus 0.2% Tween 20, Thermo Fisher Scientific Inc., Cat#37535) to form fifty-fold dilution. Next, 40 μL diluted solution was pumped into 2360 μL Conjugate Buffer to form the Secondary Antibody Solution (3000× diluted).
Assay procedure: Six hundred and twenty microliter Wash Buffer (Phosphate-buffered saline (Thermo Fisher Scientific Inc., Cat#70011) plus 0.2% (vol/vol) Tween 20 (J. T. Baker, Cat#JTB-X251-07)) was added in the “Wash” hole of array. […]
(§2) The glycan array was put on the Agnitio BioIC Pumping Machine for pressurizing 30 minutes. The bound serum was visualized monitored using Agnitio BioIC Analyzer. The absorbance intensity of array was converted into “Glycan Scores” based on the following calculation: In certain examples, glycan scores=(raw data−background)/Internal Control×10. […]

Human IgM [2] = test: Glycan array analysis (secondary test), relative anti-glycan Human IgM, pancreatic cancer; type: binding
Protocol: The reagents, equipment and assay procedures were totally the same as primary test. However, the intensity of array was converted into “Ab level (μg/mL)” based on following calculation which is relative to Anti-human Globo H IgG.
The internal curve of each chip was using linear regression to calculate slope and intercept. In certain examples, the Ab level (μg/mL)=[(raw data-intercept)/slope]×0.1. The internal curve was performed using 0.0625, 0.125, 0.25, 0.5, 0.75, and 1 μg/mL of human IgM.
Relative Anti-glycan Human IgM: There were total 277 clinical samples (108 pancreatic cancer and 169 healthy serum) performed using Globo H-lipid 1 and SSEA-4-lipid 1 immobilized arrays. The median values of Globo H-lipid 1 IgM test were 0.32 (pancreatic cancer) and 0.25 (healthy) [FIG. 11A]. The median values of SSEA-4-lipid 1 IgM test were 0.12 (pancreatic cancer) and 0.08 (healthy) [FIG. 11B].

Human IgG = test: Glycan array analysis (primary test), glycan score of Human IgG; type: binding
Description: as §1
The Microfluidic cartridge was manufactured at Agnitio Science and Technology Inc. The microfluidic cartridge was composed by three layers shown in FIG. 9. The upper layer contained serum and reagents reservoirs, microfluidic pumps, and ELISA channel network. […]
as §2

VK9 = test: ELISA binding of VK9 to plate-coated Globo H-ceramide and Globo H-lipids; settings: glycan immobilized on microtiter plate from 0.001 to 10 μg/mL; FIG. 8A
Protocol: Enzyme-linked immunosorbent assay. Clear Flat-Bottom Immuno Nonsterile 96-Well Plates (Thermo Fisher Scientific Inc., Cat#442404)) were coated with the respective glycan-linked glycopeptides at 0.2 μg to 50 μL ethanol per well and were incubated at room temperature overnight. Then 100 μL Casein Blocking Buffer (Sigma-Aldrich Co. LLC, Cat#B6429) was added to each well and the microtiter plate was incubated at room temperature for 30 minutes. All subsequent steps were performed at room temperature.
The microtiter plate was treated with 50 μL of different dilutions of VK9 cells in Casein Blocking Buffer to each well and incubated at room temperature for 1 hr. The wells were then washed three times with Phosphate-buffered saline (Thermo Fisher Scientific Inc., Cat#70011) plus 0.05% (vol/vol) Tween 20 (J. T. Baker, Cat#JTB-X251-07) using a microplate washer (SkanWash 400, Molecular Devices LLC.). […]
The microtiter plate was treated with 100 μL of Alkaline Phosphatase (pNPP) Yellow Liquid Substrate System for ELISA (Sigma-Aldrich Co. LLC., Cat#P7998) at 37° C. for 20 minutes and the reaction was stopped by adding another 50 μL of Stop Solution (3N NaOH). The bound VK9 cells were visualized monitored at 405 nm using a microplate reader (SpectraMax M2, Molecular Devices LLC.). […]

IgM = test: Sugar array IgM binding with pancreatic cancer and healthy clinical samples; parameters: species or system human
Protocol: The Globo H lipid 1, Globo H lipid 2, and Globo H-ceramide were immobilized on microtiter plate from 0.001 to 10 μg/mL, separately. […] In addition, the comparison of IgM binding patterns of Globo H-ceramide, Globo H-lipid 1, and Globo H-lipid 2 using sugar array was listed in FIG. 8B. […] In some embodiments the complex binding agent may comprise any of the complex binding agents or detectable labels of this disclosure. In certain exemplary embodiments, the Globo H ceramide and Globo H lipids are the array elements and the IgM antibodies are from the sample. And then secondary labeled anti-human ab are used to detect the complexes

optical density at 405 nm (OD405) (VK9) | Mean (IgM) Healthy (n = 100) (IgM; healthy samples) | Mean (IgM) Pancreatic cancer (n = 115) (IgM; pancreatic cancer samples) | Compound | median glycan score, IgM test (Human IgM [1]; healthy serum) | median glycan score, IgM test (Human IgM [1]; pancreatic cancer serum) | median Ab level, IgM test (Human IgM [2]; healthy serum) [µg/mL] | median Ab level, IgM test (Human IgM [2]; pancreatic cancer serum) [µg/mL] | median glycan score, IgG test (Human IgG; healthy serum) | median glycan score, IgG test (Human IgG; pancreatic cancer serum)
 |  |  | CCCCCCCCCCCCCCCCOCC(OCCCCCCCCCCCCCCCC)C(=O)NCCCCCO[C@H]1OC(CO)[C@@H](O[C@@H]2OC(CO)[C@H](O[C@H]3OC(CO)[C@H](O)C(O[C@@H]4OC(CO)[C@H](O)C(O[C@@H]5OC(CO)[C@H](O)C(O)C5O[C@@H]5OC(C)[C@@H](O)C(O)C5O)C4NC(C)=O)C3O)C(O)C2O)C(O)C1O (stereo partly shown) [Globo H-lipid 1] | 2.56 | 6.64 | 0.25 | 0.32 | 0.12 | 0.54
higher than Globo H-ceramide |  |  | CCCCCCCCCCCCCCCCOC[C@@H](COC(=O)CCCC(=O)NCCCCCO[C@H]1OC(CO)[C@@H](O[C@@H]2OC(CO)[C@H](O[C@H]3OC(CO)[C@H](O)C(O[C@@H]4OC(CO)[C@H](O)C(O[C@@H]5OC(CO)[C@H](O)C(O)C5O[C@@H]5OC(C)[C@@H](O)C(O)C5O)C4NC(C)=O)C3O)C(O)C2O)C(O)C1O)OCCCCCCCCCCCCCCCC (stereo partly shown) [Globo H-lipid 2] |  |  |  |  |  | 
 |  |  | CCCCCCCCCCCCCCCCOC[C@@H](OCCCCCCCCCCCCCCCC)C(=O)NCCCCCO[C@@H]1O[C@H](CO)[C@@H](O[C@@H]2O[C@H](CO)[C@H](O[C@H]3O[C@H](CO)[C@H](O)[C@H](O[C@@H]4O[C@H](CO)[C@H](O)[C@H](O[C@@H]5O[C@H](CO)[C@H](O)[C@H](O[C@]6(C(=O)O)C[C@H](O)[C@@H](NC(C)=O)[C@H]([C@H](O)[C@H](O)CO)O6)[C@H]5O)[C@H]4NC(C)=O)[C@H]3O)[C@H](O)[C@H]2O)[C@H](O)[C@H]1O [SSEA-4-lipid 1] |  |  | 0.08 | 0.12 |  | 
 | 1977.88 | 3130.03 | Globo H-ceramide [reference compound] | 1.57 | 2.53 |  |  |  | 

Source: patent US10935544B2, “Glycan arrays and method of use” (OBI Pharma, Inc., priority 2015, dated 2021)
